pIC50: −log10 of the molar value.
Columns and labels:
[1] = target: T1, TRKA (Homo sapiens, UniProt P04629); experiment: In vitro biochemical HTRF KinEASE kinase inhibition, TRKA; conditions: wild-type kinase, final ATP 3.727 μmol/L; read-out: TRKA IC50
T1 construct: purchased Carna Biosciences 08-186

[2] = target: T2, TRKA-G667C (Homo sapiens, UniProt P04629, G667C); experiment: TRK kinase mutant inhibition (HTRF), TRKA-G667C; assay type: biochemical
T2 construct: purchased Carna Biosciences

[3] = target: T3, TRKA-F589L (Homo sapiens, UniProt P04629, F589L); experiment: TRK kinase mutant inhibition (HTRF), TRKA-F589L; assay type: biochemical
T3 construct: purchased Carna Biosciences
T3 sequence (P04629 33-796 F589L): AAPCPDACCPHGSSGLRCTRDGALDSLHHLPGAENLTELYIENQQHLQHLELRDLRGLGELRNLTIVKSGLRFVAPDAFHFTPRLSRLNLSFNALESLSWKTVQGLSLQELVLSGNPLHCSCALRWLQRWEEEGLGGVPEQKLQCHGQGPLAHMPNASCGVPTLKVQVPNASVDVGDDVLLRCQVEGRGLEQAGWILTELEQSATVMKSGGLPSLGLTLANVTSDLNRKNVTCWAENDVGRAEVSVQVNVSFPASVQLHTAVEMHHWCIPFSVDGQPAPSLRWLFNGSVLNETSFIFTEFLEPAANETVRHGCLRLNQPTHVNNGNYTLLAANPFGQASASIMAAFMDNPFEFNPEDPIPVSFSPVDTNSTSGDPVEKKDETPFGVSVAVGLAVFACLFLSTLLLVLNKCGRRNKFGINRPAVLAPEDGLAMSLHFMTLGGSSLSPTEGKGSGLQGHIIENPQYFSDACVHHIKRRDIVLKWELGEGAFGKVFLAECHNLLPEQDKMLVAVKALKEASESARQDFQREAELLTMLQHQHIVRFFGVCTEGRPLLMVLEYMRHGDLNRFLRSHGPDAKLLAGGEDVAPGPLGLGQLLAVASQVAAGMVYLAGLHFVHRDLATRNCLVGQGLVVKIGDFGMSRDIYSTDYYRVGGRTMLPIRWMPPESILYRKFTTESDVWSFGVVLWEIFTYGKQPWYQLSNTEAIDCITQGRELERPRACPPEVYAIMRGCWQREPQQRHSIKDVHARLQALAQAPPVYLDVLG

[4] = Drug metabolism study in rats, oral administration; conditions: rat; for CL / Vz: oral 5 mg/kg; for AUC(0-t) / Cmax / MRT last / Tmax / bioavailability / half-life: plasma, po, 5 mg/kg
[5] = Drug metabolism study in rats, intravenous administration; conditions: rat, plasma, iv, 1 mg/kg
[6] = target: T4, TRKB (Homo sapiens, UniProt Q16620); experiment: In vitro biochemical HTRF KinEASE kinase inhibition, TRKB; conditions: wild-type kinase, final ATP 2.56 μmol/L
T4 construct: purchased Carna Biosciences 08-187
T4 sequence (Q16620 32-822): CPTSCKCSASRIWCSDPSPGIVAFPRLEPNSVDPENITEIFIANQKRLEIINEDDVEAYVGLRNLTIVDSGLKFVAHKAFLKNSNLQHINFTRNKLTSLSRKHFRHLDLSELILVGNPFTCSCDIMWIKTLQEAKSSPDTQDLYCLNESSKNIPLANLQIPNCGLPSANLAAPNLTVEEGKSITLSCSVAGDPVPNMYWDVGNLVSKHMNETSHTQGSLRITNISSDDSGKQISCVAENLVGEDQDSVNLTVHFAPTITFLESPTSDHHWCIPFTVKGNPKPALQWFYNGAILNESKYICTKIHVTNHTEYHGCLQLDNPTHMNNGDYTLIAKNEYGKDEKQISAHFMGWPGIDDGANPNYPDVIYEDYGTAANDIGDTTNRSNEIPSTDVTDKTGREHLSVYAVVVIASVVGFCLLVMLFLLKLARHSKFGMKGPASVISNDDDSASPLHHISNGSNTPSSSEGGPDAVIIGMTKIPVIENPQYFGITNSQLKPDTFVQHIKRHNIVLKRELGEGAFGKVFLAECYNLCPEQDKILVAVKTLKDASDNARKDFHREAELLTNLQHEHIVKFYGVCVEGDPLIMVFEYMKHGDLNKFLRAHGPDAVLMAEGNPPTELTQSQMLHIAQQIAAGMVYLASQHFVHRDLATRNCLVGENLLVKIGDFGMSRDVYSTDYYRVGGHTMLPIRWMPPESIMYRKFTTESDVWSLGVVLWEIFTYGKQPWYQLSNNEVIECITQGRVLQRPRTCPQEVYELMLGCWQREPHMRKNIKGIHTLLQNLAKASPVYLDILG
Experimental: The material and the method are as follows: wild-type kinases such as TRKA, TRKB and TRKC, and mutant kinases such as TRKA-G595R, TRKA-G667C, TRKA-F589L, TRKC-G623R and TRKC-G696A, and are derived from Carna Biosciences 08-186, 08-187, 08-197; HTRF KinEASE TKkit (Cisbio 62TKO PEC); 384 well plates (Greiner corporation); ATP (Life technologies PV 3227), MgCl2 (sigma); PHERAstar FS Multifunctional microplate reader (BMG Co.); low speed centrifuge (StaiteXiangyi corporation); incubator (Binder company).
Preparing a compound working solution: the dispensed compounds were removed from the freezer prior to testing and diluted to 100× concentration with pure DMSO; then the compound was diluted to the desired concentration of 4× with deionized water;
Preparation of 1.33× enzyme buffer (enzyme buffer): 5× enzyme buffer (from HTRF kit) was diluted to 1.33× with deionized water and the corresponding ingredients were added at a final concentration of 1.33×: 1.33 mmol/L Dithiothreitol (DTT), 1.33 mmol/L MnCl2, 6.65 mmol/L MgCl2 and 39.9 nmol/L SEB;
Preparation of a kinase working solution: TRKA, TRKB and TRKC were diluted with 1.33× enzyme buffer to the required concentrations of 2× of 0.404 ng/μL, 0.304 ng/μL and 0.236 ng/μL, respectively;
Preparing a substrate working solution: a mixture of TK Substrate Blr diluted to the desired final concentration of 4× (from HTRF kit) and ATP (10 mM) with 1.33× enzyme buffer; the final ATP concentrations for TRKA, TRKB, and TRKC were: 3.727 μmol/L, 2.56 μmol/L and 2.526 μmol/L. The TK Substrate-biotin (from HTRF KinEASE TKkit) final concentrations were all: 0.2 μmol/L.
Preparing a detection working solution: 16.67 μmol/L of Streptavidin-XL665 (Streptavidin-XL 665) were diluted to the desired final concentration of 4× with HTRF test buffer and then mixed with an equal volume of Antibody-europium Cryptate (Antibody-Cryptate) (both from HTRF kits).
An enzyme reaction step: add 4 μL of kinase working solution to each well of a low volume 384 microwell plate along with 4 μL of 1.33× enzyme buffer as a Negative control (Negative); add 2 μl of compound working solution to the wells, while adding 2 μl of […] aqueous solution as a zero compound concentration control (i.e., Positive control, Positive); incubating at 25° C. for 5 min; add 2 μL of substrate working solution to the wells to start the enzymatic reaction, shake the reaction for 30 min at 37° C.
HTRF reagent detection step: adding […] to the hole to terminate the reaction; reacting for 1 h at 25° C.;
Reading of HTRF signal: the PHERAstar FS reading is adopted to detect signals, and the corresponding setting of the instrument is as follows:
For the raw data read out per well, the ratio=665 nm/620 nm;
Calculation of inhibition rate:
Calculation of IC50 values: with the logarithm of the compound concentration as abscissa and the inhibition as ordinate, a non-linear curve was fitted in GraphPad Prism 5: log (inhibitor) vs. response—Variable slope, and calculating the concentration of the compound to be detected, namely IC50, when the enzyme activity inhibition rate is 50%.

[7] = target: T5, TRKA-G595R (Homo sapiens, UniProt P04629, G595R); experiment: TRK kinase mutant inhibition (HTRF), TRKA-G595R; assay type: biochemical
T5 construct: purchased Carna Biosciences
T5 sequence (P04629 33-796 G595R): as the sequence (P04629 33-796 F589L) above, with L557F, G563R counted along it

[8] = target: T6, TRKC (Homo sapiens, UniProt Q16288); experiment: In vitro biochemical HTRF KinEASE kinase inhibition, TRKC; conditions: wild-type kinase, final ATP 2.526 μmol/L
T6 construct: purchased Carna Biosciences 08-197
T6 sequence (Q16288 32-825 isoform Q16288-3 limits assumed): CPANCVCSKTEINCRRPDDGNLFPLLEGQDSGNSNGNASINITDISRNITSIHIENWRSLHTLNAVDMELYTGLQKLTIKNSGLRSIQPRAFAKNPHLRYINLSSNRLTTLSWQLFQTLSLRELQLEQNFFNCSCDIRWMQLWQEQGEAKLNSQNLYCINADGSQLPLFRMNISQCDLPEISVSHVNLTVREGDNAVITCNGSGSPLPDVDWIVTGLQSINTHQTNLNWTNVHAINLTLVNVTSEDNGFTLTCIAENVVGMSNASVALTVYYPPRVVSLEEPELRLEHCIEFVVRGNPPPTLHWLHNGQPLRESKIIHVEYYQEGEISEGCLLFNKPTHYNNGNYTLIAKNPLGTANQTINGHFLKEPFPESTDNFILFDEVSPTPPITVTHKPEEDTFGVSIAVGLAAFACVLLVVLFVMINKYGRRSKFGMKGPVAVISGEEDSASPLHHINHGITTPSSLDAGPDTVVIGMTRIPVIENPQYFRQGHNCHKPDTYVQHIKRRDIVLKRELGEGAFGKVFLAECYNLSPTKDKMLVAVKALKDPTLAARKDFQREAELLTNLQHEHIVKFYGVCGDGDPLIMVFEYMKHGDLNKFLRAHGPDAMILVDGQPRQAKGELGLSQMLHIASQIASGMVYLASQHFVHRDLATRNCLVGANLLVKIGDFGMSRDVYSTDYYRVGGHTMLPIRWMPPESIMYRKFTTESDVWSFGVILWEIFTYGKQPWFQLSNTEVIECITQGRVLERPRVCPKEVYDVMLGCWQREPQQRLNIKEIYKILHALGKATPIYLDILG

[9] = target: T7, TRKC-G623R (Homo sapiens, UniProt Q16288, G623R); experiment: TRK kinase mutant inhibition (HTRF), TRKC-G623R; assay type: biochemical
T7 construct: purchased Carna Biosciences
T7 sequence (Q16288 32-839 G623R): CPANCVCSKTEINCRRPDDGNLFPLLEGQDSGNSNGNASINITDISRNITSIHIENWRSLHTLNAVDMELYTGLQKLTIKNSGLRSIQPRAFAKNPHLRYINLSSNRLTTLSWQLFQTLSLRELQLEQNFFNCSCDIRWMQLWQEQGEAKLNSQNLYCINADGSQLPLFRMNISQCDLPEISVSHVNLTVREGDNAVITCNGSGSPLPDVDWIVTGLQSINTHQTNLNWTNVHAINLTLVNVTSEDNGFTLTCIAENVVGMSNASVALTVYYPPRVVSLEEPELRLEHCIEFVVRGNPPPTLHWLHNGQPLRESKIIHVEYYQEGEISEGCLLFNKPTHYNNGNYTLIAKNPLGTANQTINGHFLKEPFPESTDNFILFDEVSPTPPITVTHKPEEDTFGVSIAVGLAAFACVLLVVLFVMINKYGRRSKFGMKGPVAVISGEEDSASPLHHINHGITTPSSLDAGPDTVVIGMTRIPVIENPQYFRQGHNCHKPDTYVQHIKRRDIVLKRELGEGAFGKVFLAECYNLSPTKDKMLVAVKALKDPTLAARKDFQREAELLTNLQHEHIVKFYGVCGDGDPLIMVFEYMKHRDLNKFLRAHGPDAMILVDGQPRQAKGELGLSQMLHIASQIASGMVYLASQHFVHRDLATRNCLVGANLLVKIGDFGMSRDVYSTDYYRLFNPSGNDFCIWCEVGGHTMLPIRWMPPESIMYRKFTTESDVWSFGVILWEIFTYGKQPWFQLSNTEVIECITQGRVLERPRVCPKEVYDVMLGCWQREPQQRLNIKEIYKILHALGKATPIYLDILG

[10] = target: T8, TRKC-G696A (Homo sapiens, UniProt Q16288, G696A); experiment: TRK kinase mutant inhibition (HTRF), TRKC-G696A; assay type: biochemical
T8 construct: purchased Carna Biosciences
T8 sequence (Q16288 32-839 G696A): as the sequence (Q16288 32-839 G623R) above, with R592G, G665A counted along it

T2 sequence (P04629 33-796 G667C): as the sequence (P04629 33-796 F589L) above, with L557F, G635C counted along it
T1 sequence (P04629 33-796): as the sequence (P04629 33-796 F589L) above, with L557F counted along it

SMILES	pIC50 [1]	pIC50 [2]	pIC50 [3]	pIC50 [6]	pIC50 [7]	pIC50 [8]	pIC50 [9]	pIC50 [10]	further results
C[C@@H](Nc1ccn2ncc(-c3cn[nH]c3)c2n1)c1cc(F)ccc1OCC(F)F [Compound 1, (R)-N-(1-(2-(2,2-difluoroethoxy)-5-fluorophenyl)ethyl)-3-(1H-pyrazol-4-yl) pyrazolo [1,5-a] pyrimidin-5-amine]	8.72	8.75	9.66	8.72	9.08	8.51	9.35	9.12	CL [4]: 126 mL/min/kg; Vz [4]: 48.49 L/kg; AUC(0-t) [4]: 650 ng·h/mL; Cmax [4]: 109 ng/mL; MRT last [4]: 5.69 h; Tmax [4]: 0.83 h; bioavailability [4]: 29.9%; half-life [4]: 4.44 h; AUC(0-t) [5]: 434 ng·h/mL; Cmax [5]: 260 ng/mL; MRT last [5]: 3.62 h; Vd [5]: 16.9 L/kg; clearance [5]: 38.5 mL/min/kg; half-life [5]: 5.1 h
C[C@@H](Nc1ccn2ncc(-c3cnn(C)c3)c2n1)c1cc(F)ccc1OC(F)F [Compound a4-8]	8.62	8.49	9.40	8.82	8.92	8.46	8.54	8.96	–
CC(Nc1ccn2ncc(-c3cnn(C(F)F)c3)c2n1)c1cc(F)ccc1OCCF (stereo not drawn) [Compound a11-18, 3-(1-(difluoromethyl)-1H-pyrazol-4-yl)-N-(1-(5-fluoro-2-(2-fluoroethoxy)phenyl)ethyl) pyrazolo [1,5-a] pyrimidin-5-amine]	7.96	9.00	9.49	–	8.96	–	9.03	9.11	–
C[C@@H](Nc1ccn2ncc(-c3cnn(C)c3)c2n1)c1cc(F)ccc1OCC(F)(F)F [Compound a23-31, (R)-N-(1-(5-fluoro-2-(2,2,2-trifluoroethoxy)phenyl)ethyl)-3-(1-methyl-1H-pyrazol-4-yl) pyrazolo [1,5-a] pyrimidin-5-amine]	8.40	8.86	9.42	8.52	8.82	8.21	8.77	9.06	–

Now from value to molecule, other results behind:

pIC50 [1]	pIC50 [2]	pIC50 [3]	pIC50 [6]	pIC50 [7]	pIC50 [8]	pIC50 [9]	pIC50 [10]	SMILES	further results
8.51	8.86	9.36	8.85	9.03	8.54	8.96	9.12	C[C@@H](Nc1ccn2ncc(-c3cnn(CCO)c3)c2n1)c1cc(F)ccc1OCC(F)(F)F [Compound a24-32, (R)-2-(4-(5-((1-(5-fluoro-2-(2,2,2-trifluoroethoxy)phenyl)ethyl)amino)pyrazolo [1,5-a]pyrimidin-3-yl)-1H-pyrazol-1-yl) ethanol]	CL [4]: 105 mL/min/kg; Vz [4]: 28.2 L/kg; AUC(0-t) [4]: 816 ng·h/mL; Cmax [4]: 195 ng/mL; MRT last [4]: 3.8 h; Tmax [4]: 0.5 h; bioavailability [4]: 47.6%; half-life [4]: 3.2 h; AUC(0-t) [5]: 343 ng·h/mL; Cmax [5]: 155 ng/mL; MRT last [5]: 4.29 h; Vd [5]: 22.8 L/kg; clearance [5]: 47.7 mL/min/kg; half-life [5]: 5.51 h
8.60	9.00	9.49	8.60	8.96	8.52	9.03	9.11	C[C@@H](Nc1ccn2ncc(-c3cn[nH]c3)c2n1)c1cc(F)ccc1OCCF [Compound b7-16, (R)-N-(1-(5-fluoro-2-(2-fluoroethoxy)phenyl)ethyl)-3-(1H-pyrazol-4-yl) pyrazolo [1,5-a] pyrimidin-5-amine]	–
< 6.00	< 6.00	< 6.00	< 6.00	< 6.00	< 6.00	< 6.00	< 6.00	CC(Nc1ccn2ncc(-c3cn[nH]c3)c2n1)c1cc(F)cc(OCC(F)F)c1 (stereo not drawn) [Control Compound C, reference compound]	–
< 6.00	< 6.00	< 6.00	< 6.00	< 6.00	< 6.00	< 6.00	< 6.00	CC(Nc1ccn2ncc(-c3cn[nH]c3)c2n1)c1ccc(OCC(F)F)c(F)c1 (stereo not drawn) [Control Compound D, reference compound]	–

Reference: patent US20220177477A1 (Central China Normal University, priority 2019, published 2022)
